Laboratory results: the NIST ThermoML archive (doi:10.1016/j.jct.2016.07.048)
± gives the expanded uncertainty stated by the source.

What was measured:
[1] = Crystal; DTA
[2] = Molar enthalpy of transition or fusion; conditions: Crystal; DSC

CCCCCCOC(=O)NC(=N)c1ccc(NCc2nc3cc(C(=O)N(CCC(=O)OCC)c4ccccn4)ccc3n2C)cc1.CS(=O)(=O)O [Dabigatran etexilate mesylate]
Normal melting temperature [1]: 190.09 ± 1.1 °C
Molar enthalpy of transition or fusion [2]: 64.5 ± 2.9 kJ/mol
